We go through two molecules from article PMC11995866, “Roles of basic amino acid residues in substrate binding and transport of the light-driven anion pump Synechocystis halorhodopsin (SyHR)” (The Journal of Biological Chemistry, 2025).

Assay [1] addresses T1, Synechocystis halorhodopsin (SyHR) (Synechocystis sp. PCC 7509, UniProt A0A9X9ZA75, H167A).
T1 construct: codon-optimised, C-terminal His6 tag, pET21a, E. coli BL21(DE3) with all-trans retinal; HisTrap-purified in DDM
T1 sequence (A0A9X9ZA75 1-234 H167A): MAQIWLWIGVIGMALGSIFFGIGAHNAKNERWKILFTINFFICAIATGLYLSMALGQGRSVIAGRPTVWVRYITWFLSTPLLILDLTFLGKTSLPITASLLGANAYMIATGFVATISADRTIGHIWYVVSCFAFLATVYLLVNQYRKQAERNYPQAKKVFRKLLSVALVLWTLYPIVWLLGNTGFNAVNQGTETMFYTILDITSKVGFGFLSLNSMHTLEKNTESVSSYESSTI
The experiment in a line: absorption spectral shift titration (UV-visible), single-site Hill fit. It is filed as binding.

Assay [2] deals with T2, Synechocystis halorhodopsin (SyHR) (Synechocystis sp. PCC 7509, UniProt A0A9X9ZA75, R71K).
T2 construct: codon-optimised, C-terminal His6 tag, pET21a, E. coli BL21(DE3) with all-trans retinal; HisTrap-purified in DDM
T2 sequence (A0A9X9ZA75 1-234 R71K): T1 sequence (A0A9X9ZA75 1-234 H167A) with R71K, A167H
The assay is described as above. It is filed as binding.

Assay [3] deals with T3, Synechocystis halorhodopsin (SyHR) (Synechocystis sp. PCC 7509, UniProt A0A9X9ZA75).
T3 construct: codon-optimised, C-terminal His6 tag, pET21a, E. coli BL21(DE3) with all-trans retinal; HisTrap-purified in DDM
T3 sequence (A0A9X9ZA75 1-234): T1 sequence (A0A9X9ZA75 1-234 H167A) with A167H
The assay is described as above. It is filed as binding.

For assay [4], the target named is T4, Synechocystis halorhodopsin (SyHR) (Synechocystis sp. PCC 7509, UniProt A0A9X9ZA75, R71A).
T4 sequence (A0A9X9ZA75 1-234 R71A): T1 sequence (A0A9X9ZA75 1-234 H167A) with R71A, A167H
The experiment in a line: biochemical.

The target of assay [5] is T5, Synechocystis halorhodopsin (SyHR) (Synechocystis sp. PCC 7509, UniProt A0A9X9ZA75, R71Y).
T5 sequence (A0A9X9ZA75 1-234 R71Y): T1 sequence (A0A9X9ZA75 1-234 H167A) with R71Y, A167H
The experiment in a line: biochemical.

Changes are numbered by the printed parent chain.

As usually defined, the Kd is the free concentration of one partner at which half of the binding sites on the other are occupied at equilibrium, for simple one-to-one binding. For the molecule `Cl` [Cl^−], the Kd in assay [1] was 360 µM; in assay [2] it was 550 µM; in assay [3] it was 590 µM; in assay [4] it was 4500 µM; in assay [5], 1400 µM.
For `O=S(=O)(O)O` [SO4^2−], the equilibrium dissociation constant (Kd) in assay [1] amounted to 6500 µM; in assay [2] it was 3800 µM; in assay [3], 3600 µM.
